Measurements as given in patent US20240228446A1, “PREPARATION METHOD FOR BICYCLIC COMPOUND AND APPLICATION AS ANTIFUNGAL AGENT” (priority 2021, published 2024).
Converted amounts (≈) assume the structure as drawn.

What follows are compounds tested on Candida albicans ATCC MYA-2876 (assay: Minimal inhibitory concentration (MIC) test on fungal growth (CLSI M27, yeasts)). Conditions: Candida albicans, 24 h, read-out: MIC Candida albicans ATCC MYA-2876.
Format: cell-based
Procedure: • RPMI1640 medium: Brand: Gibco, article number: 31800-014 • Sabouraud dextrose agar (SDA): Brand: Hope Bio, article number: HB0253-81 • Voriconazole: Brand: Adamas, article number: 22105A • Amphotericin B: Brand: AbCam, article number: ab141199
MIC test was conducted in accordance with the guidelines and requirements of CLSI M27 (for yeasts) and M38 (for Aspergillus).
Strain preparation: The strains were inoculated 1 day in advance by streaking on SDA plates with glycerol strains stored at −80° C. The strains were cultured at 35° C. and 40 to 60% humidity for 18 to 24 hours. Streak inoculation of Aspergillus fumigatus and Cryptococcus neoformans was required to be done 3 days and 2 days in advance, respectively.
Preparation of culture medium and compounds: The liquid culture medium RPMI was prepared with pure water, and 0.165 mol/L MOPS was added to adjust the pH to 7.0. The mixture was filtered with a 0.22 μm-membrane filter, sterilized, and stored at 4° C. (no more than 3 months). 0.85% physiological saline was sterilized at 121° C. for 30 min and then stored at room temperature (no more than 1 week). The compounds were dissolved in DMSO to 12.8 mg/mL and stored at −20° C.
For yeast, 3 to 5 colonies were selected from the SDA plate on the day of testing and fully suspended in 5 mL of sterilized 0.85% physiological saline. The turbidity of the bacterial suspension was measured with a turbidimeter, and the turbidity was adjusted to approximately 0.2. The bacterial suspension was 50-fold and 20-fold (1000-fold in total) diluted in RPMI1640 medium, respectively, to serve as the inoculum. The final inoculum concentration was 500 to 2500 CFU/mL.
The compound was diluted to the highest 800 μg/mL (or 400 μg/mL) with DMSO, and a 10-step 2-fold gradient dilution was performed, resulting in 11 concentrations. 2 μL of the gradient-diluted compound was transferred to the corresponding wells of a 96-well plate, and then 198 μL of the inoculum was transferred to the test plate. The plate was incubated at 35° C. for 24 hours (Aspergillus fumigatus and Cryptococcus neoformans were incubated for 48 and 72 hours, respectively).
After the incubation, the growth of the fungi was visually observed. The lowest concentration of the compound that inhibited the growth of yeast by 50% (inhibited Aspergillus by 100%) was defined as the minimum inhibitory concentration (MIC, μg/mL). A magnifying glass or reading at OD530 nm could be used to assist in determining the MIC. Photos were taken of the test plates for record keeping.

SMILES	MIC
OCC(F)(F)CNc1ccc(C23CC(C(F)(F)C(O)(Cn4cnnn4)c4ccc(F)cc4F)(C2)C3)cn1 (stereo not shown) [Compound 104]	0.03 µg/mL (≈ 0.0568 µM)
OC(COc1ccc(C23CC(C(F)(F)C(O)(Cn4cnnn4)c4ccc(F)cc4F)(C2)C3)cc1)CN1CCOCC1 (stereo not shown) [Compound 57]	0.06 µg/mL (≈ 0.104 µM)
NC[C@H](O)COc1ccc(C23CC(C(F)(F)C(O)(Cn4cnnn4)c4ccc(F)cc4F)(C2)C3)cc1 (stereo partly shown) [Compound 52]	1 µg/mL (≈ 1.97 µM)
OC(Cn1cnnn1)(c1ccc(F)cc1F)C(F)(F)C12CC(c3ccc(OCC(F)(F)F)nn3)(C1)C2 (stereo not shown) [Compound 114]	0.06 µg/mL (≈ 0.116 µM)
CN(C)CCOc1ccc(C23CC(C(F)(F)C(O)(Cn4cnnn4)c4ccc(F)cc4F)(C2)C3)cc1 (stereo not shown) [Compound 64]	0.06 µg/mL (≈ 0.119 µM)
OC(Cn1cnnn1)(c1ccc(F)cc1F)C(F)(F)C12CC(c3cnc(NCC(F)(F)F)nc3)(C1)C2 (stereo not shown) [Compound 111]	0.016 µg/mL (≈ 0.0309 µM)
COc1ccc(C23CC(C(F)(F)C(O)(Cn4cnnn4)c4ccc(F)cc4F)(C2)C3)cn1 (stereo not shown) [Compound 92]	0.03 µg/mL (≈ 0.0668 µM)

Same assay, conditions: Candida albicans; lowest concentration inhibiting growth of yeast by 50%; 35° C., 24 hours; RPMI1640; read-out: MIC Candida albicans ATCC MYA-2876

SMILES	MIC
COC(=O)c1ccc(C23CC(C(F)(F)C(O)(Cn4cnnn4)c4ccc(F)cc4F)(C2)C3)cc1 (stereo not shown) [Compound 77]	0.016 µg/mL (≈ 0.0336 µM)
O[C@](Cn1cnnn1)(c1ccc(F)cc1F)C(F)(F)C12CC(c3ccc(Cl)cc3)(C1)C2 [Compound 32B]	0.06 µg/mL (≈ 0.132 µM)
OC(Cn1cnnn1)(c1ccc(F)cc1F)C(F)(F)C12CC(c3ccc(OC(F)F)cc3)(C1)C2 (stereo not shown) [Compound 26]	0.016 µg/mL (≈ 0.033 µM)
CC12CC(C(F)(F)C(O)(Cn3cnnn3)c3ccc(F)cc3F)(C1)C2 (stereo not shown) [Compound 14]	0.03 µg/mL (≈ 0.0842 µM)
OC(Cn1cnnn1)(c1ccc(F)cc1F)C(F)(F)C12CC(c3ccc(O[C@@H]4CCNC4)cc3)(C1)C2 (stereo partly shown) [Compound 84]	0.25 µg/mL (≈ 0.497 µM)
N#Cc1ccc(C23CC(C(F)(F)C(O)(Cn4cnnn4)c4ccc(F)cc4F)(C2)C3)cc1 (stereo not shown) [Compound 8]	0.5 µg/mL (≈ 1.13 µM)
N#Cc1ccc(C23CC(C(F)(F)C(O)(Cn4cnnn4)c4cc(F)ccc4F)(C2)C3)cc1 (stereo not shown) [Compound 28]	0.016 µg/mL (≈ 0.0361 µM)
O[C@H](COc1ccc(C23CC(CC(O)(Cn4cnnn4)c4ccc(F)cc4F)(C2)C3)cc1)C(F)(F)F (stereo partly shown) [Compound 89]	0.016 µg/mL (≈ 0.0313 µM)
N#Cc1ccc(C23CC(C(F)(F)[C@@](O)(Cn4cncn4)c4ccc(F)cc4F)(C2)C3)cc1 [Compound 27B]	0.06 µg/mL (≈ 0.136 µM)
CN(C)C[C@@H](O)COc1ccc(C23CC(C(F)(F)C(O)(Cn4cnnn4)c4ccc(F)cc4F)(C2)C3)cc1 (stereo partly shown) [Compound 55]	0.25 µg/mL (≈ 0.467 µM)
OC(Cn1cnnn1)(c1ccc(F)cc1F)C(F)(F)C12CC(c3ccc(OCc4nccs4)cc3)(C1)C2 (stereo not shown) [Compound 73]	0.016 µg/mL (≈ 0.0301 µM)
O[C@H](COc1ccc(C23CC(C(F)(F)C(O)(Cn4cnnn4)c4ccc(F)cc4F)(C2)C3)cc1)CN1CCOCC1 (stereo partly shown) [Compound 58]	0.06 µg/mL (≈ 0.104 µM)
CS(=O)(=O)CC(O)COc1ccc(C23CC(C(F)(F)C(O)(Cn4cnnn4)c4ccc(F)cc4F)(C2)C3)cc1 (stereo not shown) [Compound 141]	0.06 µg/mL (≈ 0.105 µM)
N#Cc1cccc(C23CC(C(F)(F)C(O)(Cn4cnnn4)c4ccc(F)cc4F)(C2)C3)c1 (stereo not shown) [Compound 30]	0.06 µg/mL (≈ 0.135 µM)
CCOc1ccc(C23CC(C(F)(F)C(O)(Cn4cnnn4)c4ccc(F)cc4F)(C2)C3)cc1 (stereo not shown) [Compound 87]	0.016 µg/mL (≈ 0.0346 µM)
CN1CCC(O)(COc2ccc(C34CC(C(F)(F)C(O)(Cn5cnnn5)c5ccc(F)cc5F)(C3)C4)cc2)CC1 (stereo not shown) [Compound 38]	0.5 µg/mL (≈ 0.89 µM)
CC(C)NC[C@H](O)COc1ccc(C23CC(C(F)(F)C(O)(Cn4cnnn4)c4ccc(F)cc4F)(C2)C3)cc1 (stereo partly shown) [Compound 53]	0.5 µg/mL (≈ 0.91 µM)
OC1(COc2ccc(C34CC(C(F)(F)C(O)(Cn5cnnn5)c5ccc(F)cc5F)(C3)C4)cc2)CC1 (stereo not shown) [Compound 147]	0.016 µg/mL (≈ 0.0317 µM)
OC(Cn1cnnn1)(c1ccc(F)cc1F)C(F)(F)C12CC(C1)C2 (stereo not shown) [Compound 6]	0.13 µg/mL (≈ 0.38 µM)
N#Cc1ccc(C23CC(C(F)(F)C(F)(Cn4cncn4)c4ccc(F)cc4F)(C2)C3)cc1 (stereo not shown) [Compound 83]	0.06 µg/mL (≈ 0.135 µM)
OC(Cn1cnnn1)(c1ccc(F)cc1F)C(F)(F)C12CC(c3ccc(COC(F)F)cc3)(C1)C2 (stereo not shown) [Compound 159]	0.0078 µg/mL (≈ 0.0156 µM)

SMILES	MIC
OC12CC(C(F)(F)C(O)(Cn3cncn3)c3ccc(F)cc3F)(C1)C2 (stereo not shown) [Compound 133]	3 µg/mL (≈ 8.4 µM)
CN1CC[C@@H](Oc2ccc(C34CC(C(F)(F)C(O)(Cn5cnnn5)c5ccc(F)cc5F)(C3)C4)cc2)C1 (stereo partly shown) [Compound 42]	0.06 µg/mL (≈ 0.116 µM)
O[C@@H](COc1ccc(C23CC(C(F)(F)[C@](O)(Cn4cnnn4)c4cc(F)ccc4F)(C2)C3)cc1)C(F)(F)F [Compound 166A]	0.06 µg/mL (≈ 0.11 µM)
N#Cc1ccc(C23CC(C(F)(F)[C@@](Cn4cncn4)(OCOP(=O)(O)O)c4ccc(F)cc4F)(C2)C3)cc1 [Compound 27A-P2]	0.5 µg/mL (≈ 0.905 µM)
OC(Cn1cncn1)(c1ccc(F)cc1F)C(F)(F)C12CC(c3ccc(OCC(F)(F)F)nc3)(C1)C2 (stereo not shown) [Compound 47]	0.0078 µg/mL (≈ 0.0151 µM)
O[C@](Cn1cncn1)(c1ccc(F)cc1F)C(F)(F)C12CC(C1)C2 (single isomer, unassigned) [Compound 10B]	1 µg/mL (≈ 2.93 µM)
OC(Cn1cnnn1)(c1ccc(F)cc1F)C(F)(F)C12CC(CN3CCC(Oc4ccccc4)CC3)(C1)C2 (stereo not shown) [Compound 80]	0.06 µg/mL (≈ 0.113 µM)
N#Cc1ccc(C23CC(C(F)(F)[C@](O)(Cn4cnnn4)c4cc(F)ccc4F)(C2)C3)cc1 [Compound 28A]	0.25 µg/mL (≈ 0.564 µM)
CN1CCC(COc2ccc(C34CC(C(F)(F)C(O)(Cn5cnnn5)c5ccc(F)cc5F)(C3)C4)cc2)CC1 (stereo not shown) [Compound 74]	0.13 µg/mL (≈ 0.238 µM)
CN1CC[C@H](Oc2ccc(C34CC(C(F)(F)C(O)(Cn5cnnn5)c5ccc(F)cc5F)(C3)C4)cc2)C1 (stereo partly shown) [Compound 43]	0.03 µg/mL (≈ 0.058 µM)
OC1(COc2ccc(C34CC(C(F)(F)C(O)(Cn5cnnn5)c5ccc(F)cc5F)(C3)C4)cc2)COC1 (stereo not shown) [Compound 150]	0.03 µg/mL (≈ 0.0576 µM)
CN1CCOC(COc2ccc(C34CC(C(F)(F)C(O)(Cn5cnnn5)c5ccc(F)cc5F)(C3)C4)cc2)C1 (stereo not shown) [Compound 85]	0.03 µg/mL (≈ 0.0548 µM)
CCS(=O)(=O)C[C@@H](O)COc1ccc(C23CC(C(F)(F)C(O)(Cn4cnnn4)c4ccc(F)cc4F)(C2)C3)cc1 (stereo partly shown) [Compound 139]	0.06 µg/mL (≈ 0.103 µM)
N#CC1(COc2ccc(C34CC(C(F)(F)C(O)(Cn5cnnn5)c5ccc(F)cc5F)(C3)C4)cc2)CC1 (stereo not shown) [Compound 148]	0.016 µg/mL (≈ 0.0312 µM)
OC(COc1ccc(C23CC(C(F)(F)C(O)(Cn4cnnn4)c4ccc(F)cc4F)(C2)C3)cc1)C1(O)COC1 (stereo not shown) [Compound 146]	0.06 µg/mL (≈ 0.109 µM)
OC(Cn1cnnn1)(c1ccc(F)cc1F)C(F)(F)C12CC(c3ccc(OCC(F)(F)F)nc3)(C1)C2 (stereo not shown) [Compound 46]	0.03 µg/mL (≈ 0.058 µM)
C[C@](F)(C12CC(c3ccc(OCC(F)(F)F)cc3)(C1)C2)[C@@](O)(Cn1cnnn1)c1ccc(F)cc1F [Compound 18B]	2 µg/mL (≈ 3.9 µM)
COc1nc(C23CC(C(F)(F)C(O)(Cn4cnnn4)c4ccc(F)cc4F)(C2)C3)cs1 (stereo not shown) [Compound 119]	0.06 µg/mL (≈ 0.132 µM)
O[C@@H](CNc1ccc(C23CC(C(F)(F)[C@](O)(Cn4cnnn4)c4ccc(F)cc4F)(C2)C3)cn1)C(F)(F)F (relative stereo) [Compound 99B]	0.03 µg/mL (≈ 0.0549 µM)
OC(Cn1cnnn1)(c1ccc(F)cc1F)C(F)(F)C12CC(c3cccc(OCC(F)(F)F)c3)(C1)C2 (stereo not shown) [Compound 31]	0.125 µg/mL (≈ 0.242 µM)

Same assay, conditions: lowest concentration inhibiting growth of yeast by 50%; 35° C., 24 hours; RPMI1640

SMILES	MIC Candida albicans ATCC MYA-2876
CNC(=O)COc1ccc(C23CC(C(F)(F)[C@](O)(Cn4cnnn4)c4ccc(F)cc4F)(C2)C3)cc1 [Compound 34A]	0.0078 µg/mL (≈ 0.0154 µM)
Oc1ccc(C23CC(C(F)(F)[C@](O)(Cn4cnnn4)c4ccc(F)cc4F)(C2)C3)cc1 (single isomer, unassigned) [Compound 20A]	0.06 µg/mL (≈ 0.138 µM)
O[C@@](Cn1cnnn1)(c1ccc(F)cc1F)C(F)(F)C12CC(C1)C2 [Compound 6A]	0.06 µg/mL (≈ 0.175 µM)
O[C@@](Cn1cnnn1)(c1ccc(Cl)cc1F)C(F)(F)C12CC(c3ccc(OCC(F)(F)F)cc3)(C1)C2 [Compound 7A]	0.0078 µg/mL (≈ 0.0146 µM)
O[C@](Cn1cnnn1)(CC12CC(c3ccc(OCC(F)(F)F)cc3)(C1)C2)c1ccc(F)cc1F [Compound 48A]	0.016 µg/mL (≈ 0.0333 µM)
O[C@](Cn1cnnn1)(c1cc(F)ccc1F)C(F)(F)C12CC(c3ccc(OCC(F)(F)F)cc3)(C1)C2 [Compound 9A]	0.06 µg/mL (≈ 0.116 µM)
O[C@@](Cn1cnnn1)(c1ccc(F)cc1F)C(F)(F)C12CC(c3ccc(Cl)cc3)(C1)C2 [Compound 32A]	≤0.0039 µg/mL
